Read-outs that look alike come from different tables or passages of the source.
Experiments:
[1] = system: MCF7 cells
Procedure: (§3) MCF7 cells were dosed every 2 hours with the indicated concentration of C15. After 6 hours, cells were lysed by freeze thaw and then sonicated in 0.5% SDS. […] MCF7 cells were treated under the stated conditions then analyzed for cell cycle. […] G. Cells treated with C17 (25 μM), dosed every 24 hours. H. Cells treated with C17 (50 μM), dosed every 24 hours. […] These cells were left for 72 h (single dose) after which time the total number of viable cells was analyzed using Alamar Blue®. All data are n≧4 showing mean+/−s.e.m. K. MCF7 cells were plated with C17 for 24 hours after which time the total number of viable cells was measured by Alamar Blue®.
(§4) All cells were grown at 37° C. in a 5% CO2 humidified atmosphere in DMEM supplemented with 10% heat inactivated FBS, 1× glutamax, and 1× penicillin/streptomycin. […] Proliferation assays were conducted by plating cells at 5% confluence in 96 well plates together with compound or 0.1% DMSO. Cells were allowed to grow for 72 hours (a 24 h dosing regimen was used for carbonate compounds) and then Alamar Blue® was added and number of cells was measured by fluorescence on a microplate reader.

[2] = system: MCF7 cells; assay: viability and cell cycle of MCF7 cells (Alamar Blue, FACS); details: Alamar Blue
Procedure: as §3, §4

[3] = system: B16/F10 cells; assay: proliferation and cell cycle of B16/F10 cells; assay type: cell-based, mouse; details: 72 h, flow cytometry
Procedure: A. MCF7 cells were treated with C17 for 4 h and Mdm2 levels were measured. B. As in A, P53 measured. C. As in A, P21 measured. D. MCF7 and B16/F10 cells were treated with C17 every 24 hours. After 72 hours, the number of viable cells was measured by Alamar Blue®.
MCF7 cells were dosed every 2 hours with the indicated concentration of C15. After 6 hours, cells were lysed by freeze thaw and then sonicated in 0.5% SDS. A. Total lysates were blotted for K48-linked ubiquitin and actin. B. Normalized K48-linked ubiquitin signal was plotted as a function of concentration of C15 (N=2). C. […] Doxorubicin (Dox) is a DNA damaging agent that serves as a positive control for the induction of P53. D. Quantitation of P53 levels in C relative to actin (N=2). […] MCF7 cells were treated under the stated conditions then analyzed for cell cycle. F. DMSO treated cells. G. Cells treated with C17 (25 μM), dosed every 24 hours. H. Cells treated with C17 (50 μM), dosed every 24 hours. […] These cells were left for 72 h (single dose) after which time the total number of viable cells was analyzed using Alamar Blue®. All data are n≧4 showing mean+/−s.e.m. K. MCF7 cells were plated with C17 for 24 hours after which time the total number of viable cells was measured by Alamar Blue®. L. B16/F10 cells were treated with DMSO, C17 or P005091 for 72 h. […] After this time, cells were analyzed by flow cytometry.
All cells were grown at 37° C. in a 5% CO2 humidified atmosphere in DMEM supplemented with 10% heat inactivated FBS, 1× glutamax, and 1× penicillin/streptomycin. […] Typically clarified lysate was analyzed. […] Lysates were centrifuged (20 000 rpm, microcentrifuge, Eppendorf 5417 C) concentration was measured, then 0.1% SDS was added and lysates were sonicated for a total of 30 s (in 10 s bursts). Protein concentration was determined using Bradford assay with IgG as standard and analyzed by western blot as delineated below {[9 μg total protein for K48-linked ubiquitin (1:9000 antibody dilution), SMAD4 (1:500) or PARP (1:1000)]; [30-40 μg was loaded for K63-linked ubiquitin (1:1500), Mdm2 (1:1000) or Abl (1:1500). […]

[4] = system: K562 cells; assay: apoptosis, cell cycle and viability of K562 cells by flow cytometry; assay type: cell-based, human; details: annexin V-FITC / propidium iodide, 24 hours (TU50 also 8 hours)
Procedure: (§1) K562 cells are from a myelogenous leukemia line that expresses Bcr-Abl kinase. A. K562 cells were treated with TU50 for 24 hours after which time the cells were treated with annexin V-FITC and propidium iodide. Cells were then analyzed by flow cytometry. Cells showing only annexin V-FITC were considered apoptotic whereas cells showing both annexin V-FITC and propidium iodide were considered necrotic. N=2. All points show a significant difference to the vehicle (DMSO) with p<0.05. […] All points show a significant difference to vehicle (DMSO) with p<0.02. C. Same as A, but the incubation period was 8 hours. N>2. All points show a significant difference to DMSO with p<0.02. D, K562 cells were treated with TU50 for 4 hours. Samples were analyzed by SDS-PAGE and immunoblotting with anti-Bcr-Abl antibody. E. Quantitation of blot in D. The signal for tubulin was used to normalize the Bcr-Abl signal. N=3.
(§2) FIG. 40 depicts data showing that diphenyl carbonates induce the degradation of Bcr-Abl kinase. A. K562 cells were treated with C17 for 24 h (1 dose) then analyzed for Bcr-Abl expression by western blot with anti-Abl antibody. B. Quantitation of blots in A normalized to actin. C. K562 cells were treated with C17 for 24 h then the amount of cells in G1 and apoptosis were recorded (N=3). D. K562 were treated with C15 for 4 h then analyzed for Bcr-Abl expression using western blot. E. Quantitation of Bcr-Abl from D normalized to tubulin (N=4). F. Same K562 lysates were separately analyzed for K63-linked ubiquitin. G. Quantitation of blots in F (N=4). Differences between all bars is significant p<0.01). H. K562 cells were treated with C15 for 24 h after which time cells were fixed in ethanol, treated with propodium iodide/RNAse then analyzed by FACS. Viability was calculated using forward and side scatter. I. Same experiment as H but red fluorescence was measured to determine DNA content

[5] = system: Bcr-Abl kinase; assay: Bcr-Abl levels in K562 cells by immunoblotting; assay type: cell-based, human; details: TU50 4 hours
Procedure: as §1
FIG. 34 depicts data showing that diphenylcarbonates cause the accumulation of HMW-Ub and reduce the levels of Bcr-Abl in K562 cells. A. K562 cells were treated with diphenyl carbonates (50 μM) for 2 h and then assayed for the accumulation of K48-linked Ub. B. As in A, but Bcr-Abl was measured by immunoblotting with anti-Abl antibodies. C. K562 cells were treated with C17 (50 μM) in the presence and absence of bortezomib (6 μM) for 4 hours and Bcr-Abl was measured by immunblotting with anti-Abl antibodies. D. Quantitation of blot in C. Significance: DMSO relative to C17 and bortezomib p=0.002; DMSO relative to C17, p=0.03. E. K562 cells were treated with C15 for 4 hours then analyzed for SMAD4 monoubiquitination by western blot. F. Quantitation of blots in A. (N=3). See also FIG. 40.
as §2
Transfected cells were harvested 1.5 days post transfection. […] Typically clarified lysate was analyzed.

[6] = molecular target: 20S proteasome (Homo sapiens, UniProt P28074); assay: proteasome activity (purified 20S proteasome; GFP-Ub (G76V) in Cos-1 cells); assay type: biochemical; details: 20S proteasome 30 minutes, Suc-Leu-Tyr-AMC 100 μM; Cos-1 GFP-Ub (G76V) 8 hours
Procedure: A. Purified 20S proteasome was treated with compound for 30 minutes prior to addition of substrate (Suc-Leu-Tyr-AMC, 100 μM). B. Cos-1 cells expressing with GFP-Ub (G76V) were treated with compound for 8 hours, then the level of GFP was measured by flow cytometry.

[7] = molecular target: T1, USP9x (Homo sapiens, UniProt Q93008); assay: HA-Ub-VS labeling in K562 cell lysates; assay type: biochemical; details: compound 40 minutes, then HA-Ub-VS (1.5 μM) 20 minutes
T1 construct: endogenous in cells; host or cells: K562 cell lysate
Procedure: HA-Ub-VS is commonly used to label DUBs in cell lysates. […] A. and B. K562 cell lysates were treated with compound for 40 minutes prior to activity labeling with HA-Ub-VS (1.5 μM) for 20 minutes. Samples were analyzed by SDS-PAGE and immunoblotting with anti-HA antibody. C. […] Values were derived by fitting to the in Prism.

T1 sequence (Q93008 whole entry): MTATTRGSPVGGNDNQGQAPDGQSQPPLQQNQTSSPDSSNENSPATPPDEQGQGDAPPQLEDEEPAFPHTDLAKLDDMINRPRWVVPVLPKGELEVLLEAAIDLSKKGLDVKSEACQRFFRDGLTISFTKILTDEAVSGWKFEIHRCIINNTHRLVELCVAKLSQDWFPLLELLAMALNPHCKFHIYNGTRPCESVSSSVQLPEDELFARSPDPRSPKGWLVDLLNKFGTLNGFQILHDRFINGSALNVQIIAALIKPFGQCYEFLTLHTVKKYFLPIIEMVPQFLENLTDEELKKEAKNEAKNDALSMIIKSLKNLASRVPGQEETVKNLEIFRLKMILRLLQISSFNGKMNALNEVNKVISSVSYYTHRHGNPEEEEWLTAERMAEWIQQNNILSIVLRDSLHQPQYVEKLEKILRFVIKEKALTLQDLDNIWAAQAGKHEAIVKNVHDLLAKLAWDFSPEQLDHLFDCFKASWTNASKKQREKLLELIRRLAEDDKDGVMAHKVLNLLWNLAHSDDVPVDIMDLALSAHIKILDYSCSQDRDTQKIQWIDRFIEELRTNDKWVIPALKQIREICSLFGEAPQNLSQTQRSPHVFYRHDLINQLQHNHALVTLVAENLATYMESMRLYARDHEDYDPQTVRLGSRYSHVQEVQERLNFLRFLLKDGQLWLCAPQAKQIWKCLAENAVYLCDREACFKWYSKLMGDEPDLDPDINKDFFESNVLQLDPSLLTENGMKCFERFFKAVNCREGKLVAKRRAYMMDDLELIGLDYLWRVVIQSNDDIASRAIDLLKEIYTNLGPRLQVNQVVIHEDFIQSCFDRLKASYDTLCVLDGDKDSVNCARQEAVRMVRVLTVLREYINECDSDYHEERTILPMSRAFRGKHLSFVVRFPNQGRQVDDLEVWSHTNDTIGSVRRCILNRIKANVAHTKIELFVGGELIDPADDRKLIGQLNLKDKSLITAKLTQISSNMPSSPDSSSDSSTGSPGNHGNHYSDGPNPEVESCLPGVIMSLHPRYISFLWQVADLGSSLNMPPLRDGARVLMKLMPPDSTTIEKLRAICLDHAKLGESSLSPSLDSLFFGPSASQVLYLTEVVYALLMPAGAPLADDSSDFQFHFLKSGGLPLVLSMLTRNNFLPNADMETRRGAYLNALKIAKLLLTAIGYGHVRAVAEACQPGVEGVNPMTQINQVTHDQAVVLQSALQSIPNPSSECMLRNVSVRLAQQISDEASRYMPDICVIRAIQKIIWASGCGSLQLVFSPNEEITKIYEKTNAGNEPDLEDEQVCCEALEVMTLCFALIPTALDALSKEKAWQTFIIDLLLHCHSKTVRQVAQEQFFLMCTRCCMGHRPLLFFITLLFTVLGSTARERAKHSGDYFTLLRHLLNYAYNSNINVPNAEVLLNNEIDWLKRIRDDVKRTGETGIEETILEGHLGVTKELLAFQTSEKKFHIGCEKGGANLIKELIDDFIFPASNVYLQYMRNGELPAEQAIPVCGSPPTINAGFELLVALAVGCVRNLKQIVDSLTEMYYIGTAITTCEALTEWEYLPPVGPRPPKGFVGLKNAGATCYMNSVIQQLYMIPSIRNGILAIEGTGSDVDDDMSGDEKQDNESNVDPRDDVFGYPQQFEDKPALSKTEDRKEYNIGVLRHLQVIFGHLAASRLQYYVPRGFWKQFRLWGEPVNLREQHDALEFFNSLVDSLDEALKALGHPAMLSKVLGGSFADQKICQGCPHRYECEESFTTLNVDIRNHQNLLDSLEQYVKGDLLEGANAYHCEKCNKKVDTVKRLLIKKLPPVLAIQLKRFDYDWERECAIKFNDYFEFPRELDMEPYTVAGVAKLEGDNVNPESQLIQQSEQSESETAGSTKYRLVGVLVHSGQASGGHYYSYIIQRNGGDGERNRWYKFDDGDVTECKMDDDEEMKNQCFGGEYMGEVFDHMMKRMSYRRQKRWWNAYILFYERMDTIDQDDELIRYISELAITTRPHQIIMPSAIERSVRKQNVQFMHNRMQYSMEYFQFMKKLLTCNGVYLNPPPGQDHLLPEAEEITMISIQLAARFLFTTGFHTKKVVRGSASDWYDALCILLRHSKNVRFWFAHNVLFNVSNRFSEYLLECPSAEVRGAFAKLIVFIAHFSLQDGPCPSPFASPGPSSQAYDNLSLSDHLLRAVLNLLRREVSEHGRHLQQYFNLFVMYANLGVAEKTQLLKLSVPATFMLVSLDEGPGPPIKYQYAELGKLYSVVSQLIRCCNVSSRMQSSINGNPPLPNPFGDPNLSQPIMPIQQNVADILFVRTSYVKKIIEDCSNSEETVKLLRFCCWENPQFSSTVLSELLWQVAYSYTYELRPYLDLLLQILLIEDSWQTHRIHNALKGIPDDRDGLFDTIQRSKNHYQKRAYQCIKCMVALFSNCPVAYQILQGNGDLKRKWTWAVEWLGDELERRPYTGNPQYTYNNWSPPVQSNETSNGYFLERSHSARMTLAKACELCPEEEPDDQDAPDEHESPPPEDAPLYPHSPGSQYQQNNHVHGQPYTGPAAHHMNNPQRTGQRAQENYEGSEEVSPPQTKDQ

SMILES: NCc1ccc(O)cc1 [aminomethylphenol, 4-(aminomethyl)phenol]
- cytotoxicity after single dose, 72 h [1]: not cytotoxic

SMILES: Oc1ccc2ccccc2c1 [Compound 2-Naphthol, 2-Naphthol]
- cytotoxicity after single dose, 72 h [2]: not cytotoxic

SMILES: CC(=O)c1cc([N+](=O)[O-])c(Sc2cccc(Cl)c2Cl)s1 [Compound P005091, reference compound]
- cell cycle distribution [3]: decrease in cells in G1 phase and an increase in G2

SMILES: O=C(NCc1ccc(N=C=S)cc1)OCc1ccccc1 [TU49]
- apoptosis of K562 cells [4]: induce apoptosis of K562 cells
- Bcr-Abl kinase level [5]: cause degradation of Bcr-Abl kinase
- effect on proteasome activity [6]: no effect on proteasome activity

SMILES: CC(C)(C)OC(=O)NCCc1ccc(N=C=S)cc1 [TU46]
- EC50 [7]: 11 ± 4 µM
- effect on proteasome activity [6]: no effect on proteasome activity
